Test: Olopatadine-PDE4 Inhibitor Solubility Study
Assay type: physicochemical
Settings: for effect on the aqueous solubility of olopatadine: 0.1-1% PDE4 inhibitor, FIGS. 1 and 2; for ratio of solubility enhancement: molecules of Compound per olopatadine molecule, straight line fit
Description: The following experiments were conducted to determine the effect of compounds of Formula I on the aqueous solubility of olopatadine.
Formulations with the compositions shown in Table 1 were prepared for olopatadine solubility testing as follows: ten milliliter samples of the formulations containing either 0%, 0.1%, 0.3%, or 1% of either Compound 1 (4-(3,5-Dichloropyridin-4-ylamino)-7-methoxy-8-(6-(4-methylpiperazin-1-yl)hexyloxy)quinolin-2(1H)-one) or Compound 2 (4-(3,5-Dichloropyridin-4-ylamino)-7-methoxy-8-(6-morpholinohexyloxy)quinolin-2(1H)-one) with at least 1% Olopatadine Hydrochloride as shown in Table 2 were prepared and adjusted to the target pH. […] The samples were mixed on a rocker and the pH was readjusted to the target pH after one and six days of mixing. On day seven, the samples were filtered through an Acrodisc 25 mm GXF/GHP 0.2 micron filter. The first three milliliters of filtrate were collected for final pH measurement and the next 3 milliliters of filtrate were filled into two 1.5 mL HPLC vials for the olopatadine assay (as free base) as shown below. Compound 1 was not assayed in samples A through H as an assay method was not available. Duplicate Compound 1/Olopatadine samples for the olopatadine assay were injected neat into the HPLC. Compound 2 and olopatadine were assayed in samples I, J, and K. Single Compound 2/Olopatadine samples were diluted 1/10 with 50/50 Acetonitrile/Water and injected into the UPLC.
The final pH of the filtered samples was measured with an Orion 525A+pH meter using a Ross Semimicro combination pH electrode and automatic temperature probe.
The Compound 1 and Olopatadine HPLC assay was conducted using the following conditions: • Instrument: Waters 2695 Separation Module and Waters 2487 • Variable Wavelength Ultraviolet-Visible Detector with Empower Software • Column: Phenomenex Ultracarb C8, 5 micron, 150×4.6 mm • Mobile Phase: • Solvent A=Acetonitrile • Solvent B=100 milliMolar Potassium Phosphate with 0.1% Triethylamine adjusted to pH 3.0 with NaOH/HC1 • Flowrate=1 milliliter/Minute • Gradient:
• Detection: 299 nm Ultraviolet Absorbance • Injection Volume: 20 microliters • Olopatadine Retention Time: About 6.2 minutes
The Compound 2 and Olopatadine UPLC assay was conducted using the following conditions: • Instrument: Waters ACQUITY UPLC System with TUV Detector and Empower Software • Column: Acquity UPLC BEH Shield C18, 1.7 micron, 100×2.1 mm • Mobile Phase: • Solvent A=0.1% Phosphoric Acid adjusted to pH 3.0 with NaOH/HCl • Solvent B=Acetonitrile • Flowrate=0.3 milliliter/Minute • Gradient:
• Detection: 285 nm Ultraviolet Absorbance • Injection Volume: 3 microliters • AL-53817 Retention Time: About 4.1 minutes • Olopatadine Retention Time: About 4.5 minutes
The target pH of samples E through K was 5.2 and the pH readings of the suspensions were close to this value prior to filtration. However, after filtration the solution pH was generally about 0.2 pH units higher than the suspension pH. This pH shift is commonly observed when measuring the pH of a suspension versus a solution. Duplicate samples of A through H were assayed and the duplicate values were averaged.
The milliMolar (mM) concentrations were calculated by dividing the % w/v concentrations by the molecular weight and multiplying by 10000.

Row | Structure (SMILES) | effect on the aqueous solubility of olopatadine | ratio of solubility enhancement | solubility of the PDE4 inhibitor in the formulation (pH 7.4)
1 | COc1ccc2c(Nc3c(Cl)cncc3Cl)cc(=O)[nH]c2c1OCCCCCCN1CCN(C)CC1 [Compound 1, 4-(3,5-Dichloropyridin-4-ylamino)-7-methoxy-8-(6-(4-methylpiperazin-1-yl)hexyloxy)quinolin-2(1H)-one] | increased the aqueous solubility of olopatadine in a linear concentration dependent manner | about two molecules of the Compounds to one olopatadine molecule | 
2 | COc1ccc2c(Nc3c(Cl)cncc3Cl)cc(=O)[nH]c2c1OCCCCCCN1CCOCC1 [Compound 2, 4-(3,5-Dichloropyridin-4-ylamino)-7-methoxy-8-(6-morpholinohexyloxy)quinolin-2(1H)-one] | increased the aqueous solubility of olopatadine in a linear concentration dependent manner | about two molecules of the Compounds to one olopatadine molecule | not sufficiently soluble

Source: US20140107121A1, “OLOPATADINE COMPOSITIONS AND USES THEREOF” (Alcon Research, Ltd., priority 2009, published 2014)
